PubChem BioAssay AID248 (DTP/NCI, 2004)
Values joined by “and” are separate entries in the source; they are usually repeats but may differ in a detail not shown here. Identical values can stand only once. Inconclusive results and toxic doses are left out. Cut-off read from the data, not from the text of the source: active = T/C of 150% or more; inactive = T/C below 125%.

Tested on: L1210 leukemia ip in BDF1 mice, survival T/C
Assay: NCI In Vivo Anticancer Drug Screen. Data for tumor model L1210 Leukemia (intraperitoneal) in B6D2F1 (BDF1) mice
Conditions: endpoint: mean survival time, higher = longer survival
In short: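 Survival endpoint. Drug-treated group vs vehicle group, expressed as T divided by C. Tumor passaged by transplantation.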

[1] = dose: 100.0 mg/kg/injection, schedule: Q01DX001 (ip), vehicle: saline
[2] = dose: 400.0 mg/kg/injection, schedule: Q01DX001 (ip), vehicle: saline
[3] = dose: 100.0 mg/kg/injection, schedule: Q01DX009 (ip), vehicle: saline
[4] = dose: 100.0 mg/kg/injection, schedule: Q04DX003 (ip), vehicle: saline
[5] = dose: 200.0 mg/kg/injection, schedule: Q01DX009 (ip), vehicle: saline
[6] = dose: 100.0 mg/kg/injection, schedule: Q04DX003 (ip), vehicle: Klucel (hydroxypropylcellulose) (HPC)
[7] = dose: 200.0 mg/kg/injection, schedule: Q04DX003 (ip), vehicle: Klucel (hydroxypropylcellulose) (HPC)
[8] = dose: 400.0 mg/kg/injection, schedule: Q04DX003 (ip), vehicle: Klucel (hydroxypropylcellulose) (HPC)

Measured: T/C

CCOc1cccc2c1OC(COS(=O)(=O)c1ccc(C)cc1)CO2 (centres undefined)
inactive: [1] 95 % of control | dose: 200.0 mg/kg/injection, schedule: Q01DX001 (ip), vehicle: saline 95 % of control | [2] 95 % of control

CC(N)C(=O)Nc1ccccc1 (centres undefined)
inactive: dose: 100.0 mg/kg/injection, schedule: Q01DX009 (ip), vehicle: water 94 % of control | dose: 100.0 mg/kg/injection, schedule: Q04DX003 (ip), vehicle: water 97 % of control | dose: 200.0 mg/kg/injection, schedule: Q01DX009 (ip), vehicle: water 100 % of control | dose: 200.0 mg/kg/injection, schedule: Q04DX003 (ip), vehicle: water 103 % of control | dose: 400.0 mg/kg/injection, schedule: Q01DX009 (ip), vehicle: water 100 % of control | dose: 400.0 mg/kg/injection, schedule: Q04DX003 (ip), vehicle: water 97 % of control

COC(=O)C1=C(\N2CCCC2)CCCCC/C=C\1C(=O)OC
inactive: dose: 75.0 mg/kg/injection, schedule: Q01DX009 (ip), vehicle: saline with Tween-80 97 % of control | dose: 150.0 mg/kg/injection, schedule: Q01DX009 (ip), vehicle: saline with Tween-80 103 % of control | dose: 300.0 mg/kg/injection, schedule: Q01DX009 (ip), vehicle: saline with Tween-80 107 % of control

CC(=O)OC(C)C1C2=C(C(=O)CC1(C)O)C(=O)c1c(ccc(-c3ccc4c(c3O)C(=O)C3=C(C4=O)C(C(C)OC(C)=O)C(C)(O)CC3=O)c1O)C2=O (centres undefined)
inactive: dose: 6.25 mg/kg/injection, schedule: Q01DX009 (ip), vehicle: saline with Tween-80 111 % of control | dose: 12.5 mg/kg/injection, schedule: Q01DX009 (ip), vehicle: saline with Tween-80 109 % of control

CCCCCCCC(=O)N(CCN(N=O)C(=O)CCCCCCC)N=O
inactive: [1] 95 % of control | [2] 90 % of control

COc1ccc(C2CCc3cc4c(cc3/C2=N/O)OCO4)cc1OC (centres undefined)
inactive: dose: 100.0 mg/kg/injection, schedule: Q01DX009 (ip), vehicle: saline with Tween-80 98 % of control | dose: 100.0 mg/kg/injection, schedule: Q04DX003 (ip), vehicle: saline with Tween-80 90 % of control | dose: 200.0 mg/kg/injection, schedule: Q01DX009 (ip), vehicle: saline with Tween-80 92 % of control | dose: 200.0 mg/kg/injection, schedule: Q04DX003 (ip), vehicle: saline with Tween-80 90 % of control | dose: 400.0 mg/kg/injection, schedule: Q01DX009 (ip), vehicle: saline with Tween-80 105 % of control | dose: 400.0 mg/kg/injection, schedule: Q04DX003 (ip), vehicle: saline with Tween-80 91 % of control

CN(C)Cc1c[nH]c2nccnc12
inactive: dose: 25.0 mg/kg/injection, schedule: Q01DX009 (ip), vehicle: saline 102 % of control | dose: 25.0 mg/kg/injection, schedule: Q04DX003 (ip), vehicle: saline 100 % of control | dose: 50.0 mg/kg/injection, schedule: Q01DX009 (ip), vehicle: saline 100 % of control | dose: 50.0 mg/kg/injection, schedule: Q04DX003 (ip), vehicle: saline 105 % of control | [3] 99 % of control and 102 % of control | [4] 100 % of control and 104 % of control | [5] 99 % of control

CCN(C(=O)c1ccc(Cl)cc1Cl)c1ccccc1C
inactive: dose: 100.0 mg/kg/injection, schedule: Q01DX009 (ip), vehicle: Klucel (hydroxypropylcellulose) (HPC) 98 % of control | [6] 97 % of control | dose: 200.0 mg/kg/injection, schedule: Q01DX009 (ip), vehicle: Klucel (hydroxypropylcellulose) (HPC) 96 % of control | [7] 108 % of control | dose: 400.0 mg/kg/injection, schedule: Q01DX009 (ip), vehicle: Klucel (hydroxypropylcellulose) (HPC) 101 % of control | [8] 98 % of control

c1ccc(-c2cccc(-c3ccccc3)c2)cc1
inactive: [6] 93 % of control | [7] 108 % of control | [8] 90 % of control

c1ccc(C2=NCC3(CCCC3)N=C2c2ccccc2)cc1
inactive: [3] 101 % of control | [4] 97 % of control | [5] 91 % of control | dose: 200.0 mg/kg/injection, schedule: Q04DX003 (ip), vehicle: saline 90 % of control | dose: 400.0 mg/kg/injection, schedule: Q01DX009 (ip), vehicle: saline 100 % of control | dose: 400.0 mg/kg/injection, schedule: Q04DX003 (ip), vehicle: saline 92 % of control
